In one experiment the test system is P-4E-BP1 (T37/46). The experiment in a line: Cell based AlphaLISA assay, inhibition of P-4E-BP1 (T37/46) in MDA-MB-468 cells (mTORC1 substrate). Conditions: AlphaLisa, two to four hours at 37° C.; for IC50: Homo sapiens, 4 h, read-out: pIC50 for Inhibition of mTORC1 and mTORC2 Substrate Phosphorylation P-4E-BP1-(T37/46) (converted). The method, boiled down: (§1)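 In MDA-MB-468 cells, phosphorylation of 4EBP1 (Thr37/46), P70S6K (Thr389) and AKT (Ser473) was measured after incubation with inhibitor by AlphaLISA SureFire Ultra on cell lysates, in duplicate. IC50 values came from control-normalized concentration-response regression.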
In general terms: In Alpha technology, singlet oxygen from a donor bead excites a nearby acceptor bead.

The next experiment relates to P-Akt (S473). As to the kind of experiment: Cell based AlphaLISA assay, inhibition of P-Akt (S473) in MDA-MB-468 cells (mTORC2 substrate). Conditions: AlphaLisa, two to four hours at 37° C.; for IC50: Homo sapiens, 4 h, read-out: pIC50 for Inhibition of mTORC1 and mTORC2 Substrate Phosphorylation p-AKT1/2/3-(S473) (converted). The method, boiled down:
as §1

A further experiment concerns P-P70S6K (T389). As to the kind of experiment: Cell based AlphaLISA assay, inhibition of P-P70S6K (T389) in MDA-MB-468 cells (mTORC1 substrate). The following applies: AlphaLisa, two to four hours at 37° C.; for IC50: Homo sapiens, 4 h, read-out: pIC50 for Inhibition of mTORC1 and mTORC2 Substrate Phosphorylation p-P70S6K-(T389) (converted). The method, boiled down: as §1

Structures are written as SMILES.

For the molecule `CO[C@H]1C[C@@H]2CC[C@@H](C)[C@@](O)(O2)C(=O)C(=O)N2CCCC[C@H]2C(=O)O[C@H]([C@H](C)C[C@@H]2CC[C@@H](OC(=O)NCc3cnc(N4CCN(C(=O)CCOCCN5CCN(c6ncc(C(=O)N7CCc8cc(Cn9nc(-c%10cnc%11[nH]ccc%11c%10)c%10c(N)ncnc%109)ccc8C7)cn6)CC5)[C@@H](C(=O)O)C4)nc3)[C@H](OC)C2)CC(=O)[C@H](C)/C=C(\C)[C@@H](O)[C@@H](OC)C(=O)[C@H](C)C[C@H](C)/C=C/C=C/C=C/1C` [Example 135], the results for the IC50 with P-4E-BP1 (T37/46), with P-Akt (S473) and in the experiment with P-P70S6K (T389) were greater than 1000 nM, greater than 1000 nM and less than 1 nM, respectively.
Consider `CO[C@H]1C[C@@H]2CC[C@@H](C)[C@@](O)(O2)C(=O)C(=O)N2CCCC[C@H]2C(=O)O[C@H]([C@H](C)C[C@@H]2CC[C@@H](OC(=O)NCCOCCOCCOCCOCCOCCOCCOCCOCCC(=O)NCc3ccc(Cn4nc(-c5ccc6oc(N)nc6c5)c5c(N)ncnc54)cc3)[C@H](OC)C2)CC(=O)[C@H](C)/C=C(\C)[C@@H](O)[C@@H](OC)C(=O)[C@H](C)C[C@H](C)/C=C/C=C/C=C/1C` [Example 79], for which the “pIC50 for Inhibition of mTORC1 and mTORC2 Substrate Phosphorylation P-4E-BP1-(T37/46)” value with P-4E-BP1 (T37/46) is on record as “+++ (≥8.5)”. Moreover, the “pIC50 for Inhibition of mTORC1 and mTORC2 Substrate Phosphorylation p-AKT1/2/3-(S473)” value in the experiment on P-Akt (S473) is “+ (7.5 > pIC50 ≥ 6.0)”. In the experiment on P-P70S6K (T389), the “pIC50 for Inhibition of mTORC1 and mTORC2 Substrate Phosphorylation p-P70S6K-(T389)” value was “+++ (≥9)”.
With `CO[C@H]1C[C@@H]2CC[C@@H](C)[C@@](O)(O2)C(=O)C(=O)N2CCCC[C@H]2C(=O)O[C@H]([C@H](C)C[C@@H]2CC[C@@H](OC(=O)NCc3cnc(N4CCN(C(=O)CCOCCN5CCN(c6ncc(C(=O)N7CCc8cc(Cn9nc(-c%10ccc%11oc(N)nc%11c%10)c%10c(N)ncnc%109)ccc8C7)cn6)CC5)CC4)nc3)[C@H](OC)C2)C[C@@H](O)[C@H](C)/C=C(\C)[C@@H](O)[C@@H](OC)C(=O)[C@H](C)C[C@H](C)/C=C/C=C/C=C/1C` [Example 113], the IC50 in the experiment with P-4E-BP1 (T37/46) was less than 3.16 nM; in the experiment with P-Akt (S473), 3.16 to 31.6 nM; in the experiment on P-P70S6K (T389) it was less than 1 nM.
Regarding `CO[C@H]1C[C@@H]2CC[C@@H](C)[C@@](O)(O2)C(=O)C(=O)N2CCCC[C@H]2C(=O)O[C@H]([C@H](C)C[C@@H]2CC[C@@H](OC(=O)NCCOCCOCCOCCOCCOCCOCCOCCOCCC(=O)NCc3ccc(Cn4nc(-c5ccc6oc(N)nc6c5)c5c(N)ncnc54)cc3)[C@H](OC)C2)C[C@H](N=[N+]=[N-])[C@H](C)/C=C(\C)[C@@H](O)[C@@H](OC)C(=O)[C@H](C)C[C@H](C)/C=C/C=C/C=C/1C` [Example 38], the figures for the IC50 in the experiment on P-4E-BP1 (T37/46), in the experiment with P-Akt (S473) and with P-P70S6K (T389) were greater than 1000 nM, greater than 1000 nM and less than 1 nM, respectively.
For `CO[C@H]1C[C@@H]2CC[C@@H](C)[C@@](O)(O2)C(=O)C(=O)N2CCCC[C@H]2C(=O)O[C@H]([C@H](C)C[C@@H]2CC[C@@H](OC(=O)NCc3cnc(N4CCN(c5ncc(C(=O)NCCOCCOCCOCCOCCC(=O)N6CCc7cc(Cn8nc(-c9ccc%10oc(N)nc%10c9)c9c(N)ncnc98)ccc7C6)cn5)[C@@H](C(=O)O)C4)nc3)[C@H](OC)C2)CC(=O)[C@H](C)/C=C(\C)[C@@H](O)[C@@H](OC)C(=O)[C@H](C)C[C@H](C)/C=C/C=C/C=C/1C` [Example 105], in the experiment with P-4E-BP1 (T37/46), the “pIC50 for Inhibition of mTORC1 and mTORC2 Substrate Phosphorylation P-4E-BP1-(T37/46)” value is on record as “++ (8.5 > pIC50 ≥ 7.5)”. Also, the “pIC50 for Inhibition of mTORC1 and mTORC2 Substrate Phosphorylation p-AKT1/2/3-(S473)” value in the experiment on P-Akt (S473) is listed as “− (<6)”. Further, the “pIC50 for Inhibition of mTORC1 and mTORC2 Substrate Phosphorylation p-P70S6K-(T389)” value in the experiment with P-P70S6K (T389) was “+++ (≥9)”.
As to `CO[C@H]1C[C@@H]2CC[C@@H](C)[C@@](O)(O2)C(=O)C(=O)N2CCCC[C@H]2C(=O)O[C@H]([C@H](C)C[C@@H]2CC[C@@H](OC(=O)NCc3cnc(N4CCN(CCOCCOCCOCCOCCC(=O)N5CCc6cc(Cn7nc(-c8ccc9oc(N)nc9c8)c8c(N)ncnc87)ccc6C5)CC4)nc3)[C@H](OC)C2)CC(=O)[C@H](C)/C=C(\C)[C@@H](O)[C@@H](OC)C(=O)[C@H](C)C[C@H](C)/C=C/C=C/C=C/1C` [Example 88], the IC50 in the experiment on P-4E-BP1 (T37/46) is less than 3.16 nM; in the experiment on P-Akt (S473), 3.16 to 31.6 nM; with P-P70S6K (T389) it was less than 1 nM.
On to `CO[C@H]1C[C@@H]2CC[C@@H](C)[C@@](O)(O2)C(=O)C(=O)N2CCCC[C@H]2C(=O)O[C@H]([C@H](C)C[C@@H]2CC[C@@H](OC(=O)NCc3cnc(N4CCN(c5ncc(C(=O)N6CCN(c7ncc(C(=O)N8CCc9cc(Cn%10nc(-c%11ccc%12oc(N)nc%12c%11)c%11c(N)ncnc%11%10)ccc9C8)cn7)CC6)cn5)CC4)nc3)[C@H](OC)C2)CC(=O)[C@H](C)/C=C(\C)[C@@H](O)[C@@H](OC)C(=O)[C@H](C)C[C@H](C)/C=C/C=C/C=C/1C` [Example 139], for which the IC50 in the experiment with P-4E-BP1 (T37/46) was less than 3.16 nM; in the experiment on P-Akt (S473), 31.6 to 1000 nM; in the experiment with P-P70S6K (T389), less than 1 nM.
`CO[C@H]1C[C@@H]2CC[C@@H](C)[C@@](O)(O2)C(=O)C(=O)N2CCCC[C@H]2C(=O)O[C@H]([C@H](C)C[C@@H]2CC[C@@H](OC(=S)NCc3cnc(N4CCN(C(=O)CCOCCN5CCN(c6ncc(C(=O)N7CCc8cc(Cn9nc(-c%10ccc%11oc(N)nc%11c%10)c%10c(N)ncnc%109)ccc8C7)cn6)CC5)CC4)nc3)[C@H](OC)C2)C[C@@H](OC)[C@H](C)/C=C(\C)[C@@H](O)[C@@H](OC)C(=O)[C@H](C)C[C@H](C)/C=C/C=C/C=C/1C` [Example 121]: the IC50 in the experiment on P-4E-BP1 (T37/46) was less than 3.16 nM; in the experiment with P-Akt (S473), greater than 1000 nM; in the experiment on P-P70S6K (T389), less than 1 nM.
The matching figures for `CO[C@H]1C[C@@H]2CC[C@@H](C)[C@@](O)(O2)C(=O)C(=O)N2CCCC[C@H]2C(=O)O[C@H]([C@H](C)C[C@@H]2CC[C@@H](OC(=O)NCc3cnc(N4CCN(C(=O)CCOCCN5CCN(c6ncc(C(=O)NCCS(=O)(=O)c7ccc(C(=O)N8CCOc9ccc(-c%10ccc(N)nc%10)cc9C8)c(C)c7)cn6)CC5)CC4)nc3)[C@H](OC)C2)CC(=O)[C@H](C)/C=C(\C)[C@@H](O)[C@@H](OC)C(=O)[C@H](C)C[C@H](C)/C=C/C=C/C=C/1C` [Example 124]: less than 3.16 nM, 3.16 to 31.6 nM and less than 1 nM.
On to `CO[C@H]1C[C@@H]2CC[C@@H](C)[C@@](O)(O2)C(=O)C(=O)N2CCCC[C@H]2C(=O)O[C@H]([C@H](C)C[C@@H]2CC[C@@H](OC(=O)N3CCc4nc(N5CCN(CCOCCN6CCN(c7ncc(C(=O)N8CCc9cc(Cn%10nc(-c%11ccc%12[nH]ccc%12c%11)c%11c(N)ncnc%11%10)ccc9C8)cn7)CC6)CC5)ncc4C3)[C@H](OC)C2)CC(=O)[C@H](C)/C=C(\C)[C@@H](O)[C@@H](OC)C(=O)[C@H](C)C[C@H](C)/C=C/C=C/C=C/1C` [Example 131], for which the IC50 is less than 3.16 nM in the experiment with P-4E-BP1 (T37/46), 3.16 to 31.6 nM in the experiment with P-Akt (S473) and less than 1 nM in the experiment with P-P70S6K (T389).
Take `CO[C@H]1C[C@@H]2CC[C@@H](C)[C@@](O)(O2)C(=O)C(=O)N2CCCC[C@H]2C(=O)O[C@H]([C@H](C)C[C@@H]2CC[C@@H](OC(=O)NCc3cnc(N4CCN(C(=O)CCOCCN5CCN(c6ncc(C(=O)NCCS(=O)(=O)c7ccc(C(=O)N8CCOc9ccc(-c%10ccc(N)nc%10)cc9C8)c(C)c7F)cn6)CC5)CC4)nc3)[C@H](OC)C2)C[C@@H](OC)[C@H](C)/C=C(\C)[C@@H](O)[C@@H](OC)C(=O)[C@H](C)C[C@H](C)/C=C/C=C/C=C/1C` [Example 123]: the IC50 in the experiment on P-4E-BP1 (T37/46) is less than 3.16 nM; with P-Akt (S473), 31.6 to 1000 nM; in the experiment on P-P70S6K (T389), less than 1 nM.

The values are drawn from patent US10980889B1 (Revolution Medicines, Inc., priority 2018, dated 2021).
